In the supplement of paper PMC6045584:
± gives the standard deviation of the averaged measurements.

Each test system was assayed with O=C(O)C1(C(=O)O)CCC1.[NH2-].[NH2-].[Pt+2] [CARBOPLATIN] (assay: surviving fraction relative to DMSO-only wells; higher = less growth inhibition). Conditions: 0.5 nM; exposure time: 5 days.
Summary of the method: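 Inhibitors were tested at 0.5, 1, 5, 10, 50, 100, 500 and 1000 nM, applied continuously for five days beginning 24 hours after log-phase tumour cells were seeded at 250–500 per well in 384-well plates. CellTiter-Glo luminescence served as the viability measure, expressed as surviving fraction against the median of DMSO-only wells. Each line, screened three times, was kept only with replicate Pearson r >0.7 and median Z' >0.3.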

Test System	surviving fraction
CADOES1 SOFT TISSUE	0.992 ± 0.13
SAOS2 BONE	1.1 ± 0.048
MDAMB436 BREAST	0.923 ± 0.041
93VU HEADNECK	1.19 ± 0.012
KPD BONE	1.02 ± 0.032
SYO1 SYNOVIAL	1.04 ± 0.028
BT20 BREAST	1.11 ± 0.04
SUM44 BREAST	1.15 ± 0.28
CAL120 BREAST	1.02 ± 0.044
CHLA90 AUTONOMIC GANGLIA	0.925 ± 0.057
HCC1806 BREAST	1.05 ± 0.14
HCC78 LUNG	1.04 ± 0.061
MFM223 BREAST	1.22 ± 0.071
SG43 HEADNECK	1.14 ± 0.14
HOS BONE	1.06 ± 0.013
MDAMB468 BREAST	0.973 ± 0.031

Test System	surviving fraction
SG27 HEADNECK	1.13 ± 0.014
ZR751 BREAST	1.16 ± 0.2
HSSYII SYNOVIAL	0.965 ± 0.035
MG63 BONE	1.08 ± 0.043
HS57T BREAST	1.03 ± 0.015
SUM159 BREAST	1.12 ± 0.024
HCC1395 BREAST	1.16 ± 0.058
SUM149.B1*.S BREAST	1.15 ± 0.096
MDAMB453 BREAST	1.07 ± 0.068
SCC90 HEADNECK	1.02 ± 0.023
HMLE3 BREAST	1.07 ± 0.033
HCC70 BREAST	1.04 ± 0.049
LNCAP PROSTATE	1.02 ± 0.043
HCT15 LARGE INTESTINE	1.1 ± 0.067
MHM BONE	1.01 ± 0.027
VCAP PROSTATE	1.04 ± 0.067

Same assay, conditions: 1 nM; exposure time: 5 days

Test System	surviving fraction
CADOES1 SOFT TISSUE	0.966 ± 0.11
SAOS2 BONE	1.18 ± 0.014
MDAMB436 BREAST	0.92 ± 0.019
93VU HEADNECK	1.13 ± 0.055
KPD BONE	1.07 ± 0.065
SYO1 SYNOVIAL	0.986 ± 0.023
BT20 BREAST	1.19 ± 0.12
SUM44 BREAST	1.05 ± 0.14
CAL120 BREAST	0.927 ± 0.023
CHLA90 AUTONOMIC GANGLIA	0.943 ± 0.072
HCC1806 BREAST	0.777 ± 0.044
HCC78 LUNG	0.884 ± 0.23
MFM223 BREAST	1.22 ± 0.18
SG43 HEADNECK	1.13 ± 0.3
HOS BONE	1.05 ± 0.02
MDAMB468 BREAST	0.96 ± 0.067

Test System	surviving fraction
SG27 HEADNECK	1.05 ± 0.017
ZR751 BREAST	1.23 ± 0.071
HSSYII SYNOVIAL	0.957 ± 0.015
MG63 BONE	1 ± 0.023
HS57T BREAST	1.08 ± 0.11
SUM159 BREAST	1.1 ± 0.02
HCC1395 BREAST	1.1 ± 0.044
SUM149.B1*.S BREAST	1.11 ± 0.02
MDAMB453 BREAST	1.05 ± 0.07
SCC90 HEADNECK	1.04 ± 0.034
HMLE3 BREAST	1.1 ± 0.053
HCC70 BREAST	1.07 ± 0.078
LNCAP PROSTATE	0.919 ± 0.079
HCT15 LARGE INTESTINE	1.04 ± 0.056
MHM BONE	1.02 ± 0.025
